Measured values from ChEMBL document CHEMBL4229405, “Design, synthesis and biological evaluation of piperazino-enaminones as novel suppressants of pro-Inflammatory cytokines” (Bioorg Med Chem, 2018).
Calls of active or inactive are those of the source. The calls are words filed in the database; no cut-off is given here.

How the values were obtained:
J774.2 [1] = assay: Antiinflammatory activity against mouse J774.2 cells assessed as inhibition of LPS-induced IL-6 release at 0.25 mM after 24 hrs by ELISA relative to control; format: functional; settings: J774.2, 24 h
[2] = Lipophilicity, log P of the compound; format: physicochemical; settings: octanol/water
J774.2 [3] = assay: Antiinflammatory activity against mouse J774.2 cells assessed as inhibition of LPS-induced TNFalpha release at > 0.5 mM after 24 hrs by ELISA; format: functional, cell-based
J774.2 [4] = assay: Antiinflammatory activity against mouse J774.2 cells assessed as inhibition of LPS-induced IL-6 release at 1 mM after 24 hrs by ELISA relative to control; format: functional; settings: for inhibition at 1000 µM: J774.2, 24 h
J774.2 [5] = assay: Antiinflammatory activity against mouse J774.2 cells assessed as inhibition of LPS-induced TNFalpha release at 0.25 mM after 24 hrs by ELISA relative to control; format: functional; settings: J774.2, 24 h
J774.2 [6] = assay: Antiinflammatory activity against mouse J774.2 cells assessed as inhibition of LPS-induced IL-6 release at 0.5 mM after 24 hrs by ELISA relative to control; format: functional; settings: for inhibition at 500 µM: J774.2, 24 h
J774.2 [7] = assay: Antiinflammatory activity against mouse J774.2 cells assessed as inhibition of LPS-induced TNFalpha release at 1 mM after 24 hrs by ELISA relative to control; format: functional; settings: J774.2, 24 h
J774.2 [8] = assay: Antiinflammatory activity against mouse J774.2 cells assessed as inhibition of LPS-induced TNFalpha release after 24 hrs by ELISA; format: functional, cell-based
J774.2 [9] = assay: Antiinflammatory activity against mouse J774.2 cells assessed as inhibition of LPS-induced TNFalpha release at 0.25 to 1 mM after 24 hrs by ELISA; format: functional, cell-based

SMILES | inhibition at 250 µM (J774.2 [1]) [%] | logP [2] | inhibition at 250 µM (J774.2 [5]) [%] | inhibition at 1000 µM (J774.2 [7]) [%] | other results
CCOC(=O)C1C(=O)C=C(Nc2cccc(N3CCN(C)CC3)c2)CC1c1ccccc1 (stereo unspecified) | 35 | 4.37 | – | – | inhibition (J774.2 [3]): Active
CCOC(=O)C1C(=O)C=C(Nc2ccc(N3CCN(C)CC3)cc2)CC1C (stereo unspecified) | – | 3.07 | – | – | –
CCOC(=O)C1C(=O)C=C(Nc2ccccc2N2CCN(C)CC2)CC1c1ccccc1 (stereo unspecified) | – | 4.35 | – | – | –
CCOC(=O)C1C(=O)C=C(Nc2ccc(N3CCN(CC)CC3)cc2)CC1C (stereo unspecified) | 25 | 3.45 | – | – | inhibition (J774.2 [3]): Active
CCOC(=O)C1C(=O)C=C(Nc2ccc(N3CCN(C)CC3)cc2)CC1c1ccccc1 (stereo unspecified) | 64 to 98 | 4.39 | 52 | 100 | inhibition (J774.2 [4]): inactive; inhibition at 500 µM (J774.2 [6]): 100%
CCN1CCN(c2ccc(NC3=CC(=O)C(C(=O)OC)C(C)C3)cc2)CC1 (stereo unspecified) | – | 3.07 | – | – | –
COC(=O)C1C(=O)C=C(Nc2ccccc2N2CCN(C)CC2)CC1C (stereo unspecified) | – | 2.65 | – | 47 | inhibition at 1000 µM (J774.2 [4]): 68%
COC(=O)C1C(=O)C=C(Nc2cccc(N3CCN(C)CC3)c2)CC1c1ccccc1 (stereo unspecified) | 72 | 3.99 | 53 | – | inhibition (J774.2 [8]): Dose-dependent effect
COC(=O)C1C(=O)C=C(Nc2cccc(N3CCN(C)CC3)c2)CC1C (stereo unspecified) | – | 2.67 | 40 | – | –
COC(=O)C1C(=O)C=C(Nc2ccc(N3CCN(C)CC3)cc2)CC1c1ccccc1 (stereo unspecified) | 9 to 70 | 4.02 | 30 | 80 to 82 | inhibition at 500 µM (J774.2 [6]): 98%
CCOC(=O)C1C(=O)C=C(Nc2ccc(N3CCN(CC)CC3)cc2)CC1c1ccccc1 (stereo unspecified) | 62 | 4.77 | 62 | – | inhibition (J774.2 [4]): inactive; inhibition (J774.2 [6]): inactive
CCOC(=O)C1C(=O)C=C(Nc2ccccc2N2CCN(C)CC2)CC1C (stereo unspecified) | – | 3.02 | – | 53 | inhibition at 1000 µM (J774.2 [4]): 72%
CCOC(=O)C1C(=O)C=C(Nc2ccc(Cl)cc2)CC1C (stereo unspecified) | 20 | – | – | 70 | inhibition at 1000 µM (J774.2 [4]): 96%
COC(=O)C1C(=O)C=C(Nc2ccc(N3CCN(C)CC3)cc2)CC1C (stereo unspecified) | 53 | 2.7 | – | – | inhibition (J774.2 [9]): inactive
CCN1CCN(c2ccc(NC3=CC(=O)C(C(=O)OC)C(c4ccccc4)C3)cc2)CC1 (stereo unspecified) | 86 | 4.39 | 65 | – | inhibition (J774.2 [8]): Dose-dependent effect
COC(=O)C1C(=O)C=C(Nc2ccccc2N2CCN(C)CC2)CC1c1ccccc1 (stereo unspecified) | – | 3.97 | – | – | –
C[C@@H]1C[C@H]2[C@@H]3CCC4=CC(=O)C=C[C@]4(C)[C@@]3(F)[C@@H](O)C[C@]2(C)[C@@]1(O)C(=O)CO [DEXAMETHASONE] | – | – | – | 62 | inhibition at 500 µM (J774.2 [6]): 40%
CCOC(=O)C1C(=O)C=C(Nc2cccc(N3CCN(C)CC3)c2)CC1C (stereo unspecified) | – | 3.05 | – | – | –
